Laboratory results: patent publication US8044069B2, “Compounds as calcium channel blockers” (Abbott Laboratories, priority 2008, dated 2011)

Biological target: human Cav2.2 (Homo sapiens, UniProt Q00975)
Test: Assessment of calcium channel activity using FLIPR (Ca2+ influx in IMR32 cells)
Type: cell-based
Conditions: IMR32 cells endogenously expressing human Cav2.2; 60 minute pre-incubation; 2 μM nifedipine; depolarized with 80 mM KCl, 5 mM CaCl2
Method: (i) In Vitro Methods—Assessment of Calcium Channel Activity Using FLIPR:
The IMR32 cells were maintained in MEM media containing 10% (v/v) FBS, 1% (v/v) antibiotic/antimitotic, 1% (v/v) sodium pyruvate and 1% (v/v) MEM NEAA. Following dissociation in 0.05% (v/v) trypsin/EDTA, cells were seeded into black 1×96-well plates (Corning Cellbind) at a density of 1-1.2×10^5 cells/well and incubated in the maintenance media above for 48 hours at 37° C. […] After dye loading and a subsequent 60 minute pre-incubation with compounds (full log dilutions from 10 μM to 0.1 nM) in the presence of 1.3 mM CaCl2 and 2 μM nifedipine to block endogenous L-type channels, the external Ca^2+ concentration was increased to 5 mM CaCl2 and the cells concomitantly depolarized with 80 mM KCl to assay channel activity. To determine the IC50 values, the percent inhibition of the compound at each concentration was determined relative to the activity in the absence of inhibitor, and data was fitted using non-linear regression sigmoidal dose response curve analysis with GraphPad Prism®.

human Cav2.2, sequence (Q00975 whole entry): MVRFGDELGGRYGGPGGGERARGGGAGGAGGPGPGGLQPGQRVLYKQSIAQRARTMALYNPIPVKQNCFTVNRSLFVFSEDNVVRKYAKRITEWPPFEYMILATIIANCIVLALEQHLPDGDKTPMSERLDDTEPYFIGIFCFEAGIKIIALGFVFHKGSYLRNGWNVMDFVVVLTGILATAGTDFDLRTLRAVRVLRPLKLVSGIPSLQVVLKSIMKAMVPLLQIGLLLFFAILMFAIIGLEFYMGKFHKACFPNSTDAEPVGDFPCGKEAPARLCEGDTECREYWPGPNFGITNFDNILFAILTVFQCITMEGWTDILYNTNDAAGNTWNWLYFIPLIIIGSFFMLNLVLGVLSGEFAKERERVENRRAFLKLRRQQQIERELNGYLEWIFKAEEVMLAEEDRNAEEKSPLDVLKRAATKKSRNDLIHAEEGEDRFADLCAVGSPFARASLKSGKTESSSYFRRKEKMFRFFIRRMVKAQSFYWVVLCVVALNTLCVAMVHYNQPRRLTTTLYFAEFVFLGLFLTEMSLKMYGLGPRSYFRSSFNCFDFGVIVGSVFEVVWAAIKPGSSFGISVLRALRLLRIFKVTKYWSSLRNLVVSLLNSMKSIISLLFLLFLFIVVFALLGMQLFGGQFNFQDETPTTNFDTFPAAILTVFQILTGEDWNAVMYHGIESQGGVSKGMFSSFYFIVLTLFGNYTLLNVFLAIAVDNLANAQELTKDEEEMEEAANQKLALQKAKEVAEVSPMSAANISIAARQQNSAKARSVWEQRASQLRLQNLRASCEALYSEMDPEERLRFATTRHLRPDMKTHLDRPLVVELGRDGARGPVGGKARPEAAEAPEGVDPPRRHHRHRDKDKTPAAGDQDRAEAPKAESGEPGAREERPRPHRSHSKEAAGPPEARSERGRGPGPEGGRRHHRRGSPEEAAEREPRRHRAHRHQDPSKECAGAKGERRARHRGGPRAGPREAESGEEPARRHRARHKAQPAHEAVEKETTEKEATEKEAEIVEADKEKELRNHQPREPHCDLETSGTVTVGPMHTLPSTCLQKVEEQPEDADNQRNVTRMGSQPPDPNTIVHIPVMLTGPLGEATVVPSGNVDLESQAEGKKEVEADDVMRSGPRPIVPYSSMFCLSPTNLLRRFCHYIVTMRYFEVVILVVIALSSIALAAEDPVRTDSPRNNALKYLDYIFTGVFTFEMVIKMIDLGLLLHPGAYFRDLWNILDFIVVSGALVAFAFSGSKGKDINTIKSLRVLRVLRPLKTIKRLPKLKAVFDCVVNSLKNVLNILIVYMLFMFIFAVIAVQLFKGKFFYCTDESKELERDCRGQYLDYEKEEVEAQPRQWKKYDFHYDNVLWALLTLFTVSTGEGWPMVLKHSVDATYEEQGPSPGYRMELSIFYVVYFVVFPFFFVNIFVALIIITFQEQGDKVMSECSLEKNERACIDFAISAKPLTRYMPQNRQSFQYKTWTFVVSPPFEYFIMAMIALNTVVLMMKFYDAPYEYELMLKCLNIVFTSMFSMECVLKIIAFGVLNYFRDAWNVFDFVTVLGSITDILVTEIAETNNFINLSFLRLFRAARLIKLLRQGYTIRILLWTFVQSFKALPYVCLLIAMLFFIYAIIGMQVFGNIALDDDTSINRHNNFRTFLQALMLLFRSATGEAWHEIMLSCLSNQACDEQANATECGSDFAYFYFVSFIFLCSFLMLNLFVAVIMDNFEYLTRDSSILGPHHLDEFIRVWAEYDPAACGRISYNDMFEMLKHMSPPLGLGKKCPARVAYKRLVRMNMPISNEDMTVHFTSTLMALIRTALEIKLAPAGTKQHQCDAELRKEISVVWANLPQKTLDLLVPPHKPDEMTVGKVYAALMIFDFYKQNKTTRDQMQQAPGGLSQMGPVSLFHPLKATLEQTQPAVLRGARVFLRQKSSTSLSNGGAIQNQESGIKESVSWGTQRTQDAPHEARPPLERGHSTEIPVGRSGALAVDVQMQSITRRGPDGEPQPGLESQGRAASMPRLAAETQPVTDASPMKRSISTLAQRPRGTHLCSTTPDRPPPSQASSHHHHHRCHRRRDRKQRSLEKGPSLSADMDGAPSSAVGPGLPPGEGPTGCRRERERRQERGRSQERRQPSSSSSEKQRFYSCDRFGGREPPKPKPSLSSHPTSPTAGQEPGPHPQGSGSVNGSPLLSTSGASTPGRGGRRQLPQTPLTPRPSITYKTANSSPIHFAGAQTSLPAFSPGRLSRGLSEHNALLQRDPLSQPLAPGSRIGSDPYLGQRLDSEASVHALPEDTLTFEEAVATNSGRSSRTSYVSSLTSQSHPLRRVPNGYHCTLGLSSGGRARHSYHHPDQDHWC
human Cav2.2, sequence (P54289 25-951 partner limits assumed): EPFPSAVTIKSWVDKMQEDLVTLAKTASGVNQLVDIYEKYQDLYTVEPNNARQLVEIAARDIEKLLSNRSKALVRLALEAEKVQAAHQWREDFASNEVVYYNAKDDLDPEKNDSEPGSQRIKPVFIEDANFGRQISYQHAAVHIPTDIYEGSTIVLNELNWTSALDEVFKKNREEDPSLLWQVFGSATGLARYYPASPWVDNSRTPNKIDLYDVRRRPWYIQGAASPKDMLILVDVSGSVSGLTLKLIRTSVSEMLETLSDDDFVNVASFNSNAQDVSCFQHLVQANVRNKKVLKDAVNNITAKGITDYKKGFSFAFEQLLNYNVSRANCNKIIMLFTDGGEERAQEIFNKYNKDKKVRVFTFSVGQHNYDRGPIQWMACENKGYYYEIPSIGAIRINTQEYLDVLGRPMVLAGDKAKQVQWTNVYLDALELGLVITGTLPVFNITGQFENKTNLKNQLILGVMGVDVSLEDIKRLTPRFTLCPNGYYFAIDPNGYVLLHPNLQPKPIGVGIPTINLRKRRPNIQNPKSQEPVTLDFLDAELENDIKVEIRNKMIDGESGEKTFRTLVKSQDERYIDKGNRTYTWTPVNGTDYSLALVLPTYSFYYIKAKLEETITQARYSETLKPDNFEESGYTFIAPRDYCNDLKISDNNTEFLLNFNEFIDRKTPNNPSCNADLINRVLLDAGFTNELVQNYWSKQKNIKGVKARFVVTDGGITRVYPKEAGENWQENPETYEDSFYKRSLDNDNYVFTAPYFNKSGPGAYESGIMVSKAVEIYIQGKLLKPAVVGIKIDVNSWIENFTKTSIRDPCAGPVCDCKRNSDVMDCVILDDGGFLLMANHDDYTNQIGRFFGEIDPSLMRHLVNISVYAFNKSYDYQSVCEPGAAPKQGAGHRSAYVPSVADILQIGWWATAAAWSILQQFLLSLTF
human Cav2.2, sequence (P54289 952-1103 partner limits assumed): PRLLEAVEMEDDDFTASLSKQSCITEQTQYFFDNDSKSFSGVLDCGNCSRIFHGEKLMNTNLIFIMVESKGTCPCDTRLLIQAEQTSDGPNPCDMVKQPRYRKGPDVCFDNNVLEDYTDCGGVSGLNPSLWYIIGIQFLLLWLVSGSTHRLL
human Cav2.2, sequence (P54284 whole entry partner): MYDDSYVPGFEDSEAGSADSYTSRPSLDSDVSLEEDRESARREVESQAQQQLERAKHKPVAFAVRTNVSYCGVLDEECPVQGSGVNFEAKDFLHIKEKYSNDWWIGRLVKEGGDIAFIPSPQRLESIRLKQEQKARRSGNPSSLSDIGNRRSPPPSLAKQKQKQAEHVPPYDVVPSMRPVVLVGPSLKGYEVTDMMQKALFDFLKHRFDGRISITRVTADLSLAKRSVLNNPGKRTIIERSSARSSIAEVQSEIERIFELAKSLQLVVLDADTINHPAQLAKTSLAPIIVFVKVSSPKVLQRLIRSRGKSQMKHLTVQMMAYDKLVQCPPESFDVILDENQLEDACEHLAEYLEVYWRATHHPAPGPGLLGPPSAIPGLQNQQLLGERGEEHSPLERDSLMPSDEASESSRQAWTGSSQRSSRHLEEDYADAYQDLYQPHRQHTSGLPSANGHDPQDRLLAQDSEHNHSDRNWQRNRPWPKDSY

Row | IC50 [µM] | SMILES
1 | 2.63 | O=C1N(Cc2nc(-c3ccc(C(F)(F)F)nc3)no2)CCC1(c1ccc(F)cc1)c1ccc(F)cc1 [Example 212, 3,3-bis(4-fluorophenyl)-1-({3-[6-(trifluoromethyl)pyridin-3-yl]-1,2,4-oxadiazol-5-yl}methyl)pyrrolidin-2-one]
2 | 1.77 | O=C(CN1CCCC(c2ccc(F)cc2)(c2ccc(F)cc2)C1=O)N1CCC(c2ccccc2)(c2ccccc2)C1 [Example 172, 1-[2-(3,3-diphenylpyrrolidin-1-yl)-2-oxoethyl]-3,3-bis(4-fluorophenyl)piperidin-2-one]
3 | 11.4 | O=C(CN1CCC(c2ccc(F)cc2Cl)C1=O)N1Cc2ccc(F)cc2C1 (centres unmarked) [Example 268, 3-(2-chloro-4-fluorophenyl)-1-[2-(5-fluoro-1,3-dihydro-2H-isoindol-2-yl)-2-oxoethyl]pyrrolidin-2-one]
4 | 3.79 | O=C(CN1CCCC(c2ccccc2)(c2ccccc2)C1=O)N1CCC(=NOCc2ccccc2)CC1 [Example 163, 1-(2-{4-[(benzyloxy)imino]piperidin-1-yl}-2-oxoethyl)-3,3-diphenylpiperidin-2-one]
5 | 6.05 | O=C(CN1CCCC(c2ccccc2)(c2ccccc2)C1=O)N1CCOC(c2ccccc2)(c2ccccc2)C1 [Example 69, 1-[2-(2,2-diphenylmorpholin-4-yl)-2-oxoethyl]-3,3-diphenylpiperidin-2-one]
6 | 2.93 | O=C1N(Cc2nc(-c3cncc(C(F)(F)F)c3)no2)CCC1(c1ccccc1)c1ccccc1 [Example 219, 3,3-diphenyl-1-({3-[5-(trifluoromethyl)pyridin-3-yl]-1,2,4-oxadiazol-5-yl}methyl)pyrrolidin-2-one]
7 | 8.71 | O=C1N(Cc2nc(-c3ccc(C(F)(F)F)cc3)no2)CCC1(c1ccccc1)c1ccccc1 [Example 62, 3,3-diphenyl-1-({3-[4-(trifluoromethyl)phenyl]-1,2,4-oxadiazol-5-yl}methyl)pyrrolidin-2-one]
8 | 2.62 | O=C(CN1CCC(c2ccc(F)cc2)(c2ccc(F)cc2)C1=O)Nc1ccc(C(F)(F)F)cn1 [Example 217, 2-[3,3-bis(4-fluorophenyl)-2-oxopyrrolidin-1-yl]-N-[5-(trifluoromethyl)pyridin-2-yl]acetamide]
9 | 3.88 | O=C(CN1CCCC(c2ccc(F)cc2)(c2ccc(F)cc2)C1=O)N1CCC(c2ccccc2)(c2ccccc2)CC1 [Example 173, 1-[2-(4,4-diphenylpiperidin-1-yl)-2-oxoethyl]-3,3-bis(4-fluorophenyl)piperidin-2-one]
10 | 2.81 | O=C1[C@@H](c2ccc(F)cc2)CCN1Cc1nc(-c2ccc(C(F)(F)F)cc2)no1 (single isomer, unassigned) [Example 237]
11 | 3.46 | O=C(CN1CCCC(c2ccccc2)(c2ccccc2)C1=O)N1CCCC1c1ccc(F)cc1 (centres unmarked) [Example 73, 1-{2-[2-(4-fluorophenyl)pyrrolidin-1-yl]-2-oxoethyl}-3,3-diphenylpiperidin-2-one]
12 | 8.65 | O=C1N(Cc2nc(-c3ccc(C(F)(F)F)cc3)no2)CCCC1(c1ccccc1)c1ccccc1 [Example 99, 3,3-diphenyl-1-({3-[4-(trifluoromethyl)phenyl]-1,2,4-oxadiazol-5-yl}methyl)piperidin-2-one]
13 | 1.1 | COc1ccccc1N1CCN(CCN2CCCC(c3ccc(F)cc3)(c3ccc(F)cc3)C2=O)CC1 [Example 137, 3,3-bis(4-fluorophenyl)-1-{2-[4-(2-methoxyphenyl)piperazin-1-yl]ethyl}piperidin-2-one]
14 | 3.04 | O=C(CN1CCC(c2ccc(F)cc2)(c2ccc(F)cc2)C1=O)N1CCC(c2ccc(F)cc2)(c2ccc(F)cc2)C1 [Example 204, 1-{2-[3,3-bis(4-fluorophenyl)pyrrolidin-1-yl]-2-oxoethyl}-3,3-bis(4-fluorophenyl)pyrrolidin-2-one]
15 | 4.37 | O=C1N(CCCc2nc(-c3ccc(C(F)(F)F)cc3)no2)CCC1(c1ccccc1)c1ccccc1 [Example 155, 3,3-diphenyl-1-(3-{3-[4-(trifluoromethyl)phenyl]-1,2,4-oxadiazol-5-yl}propyl)pyrrolidin-2-one]
16 | 1.03 | O=C(CN1CCCC(c2ccccc2)(c2ccccc2)C1=O)NC1CN(C(c2ccccc2)c2ccccc2)C1 [Example 176, N-(1-benzhydrylazetidin-3-yl)-2-(2-oxo-3,3-diphenylpiperidin-1-yl)acetamide]
17 | 0.46 | O=C(CN1CCC(c2ccccc2)(c2ccccc2)C1=O)N1CCC(c2ccccc2)(c2ccccc2)CC1 [Example 25, 1-[2-(4,4-diphenylpiperidin-1-yl)-2-oxoethyl]-3,3-diphenylpyrrolidin-2-one]
18 | 2.75 | O=C1[C@H](c2ccc(F)cc2)CCN1Cc1nc(-c2ccc(C(F)(F)F)cc2)no1 (single isomer, unassigned) [Example 236]

Row | IC50 [µM] | SMILES
19 | 2.46 | COc1ccc(CCN(C)CCN2CCCC(c3ccccc3)(c3ccccc3)C2=O)cc1OC [Example 118, 1-{2-[[2-(3,4-dimethoxyphenyl)ethyl](methyl)amino]ethyl}-3,3-diphenylpiperidin-2-one]
20 | 3 | CC1(NC(=O)CN2CCCC(c3ccccc3)(c3ccccc3)C2=O)CCN(Cc2ccccc2)C1 (centres unmarked) [Example 89, N-(1-benzyl-3-methylpyrrolidin-3-yl)-2-(2-oxo-3,3-diphenylpiperidin-1-yl)acetamide]
21 | 9.89 | O=C(CN1CCC(c2ccc(F)cc2)C1=O)N1CCc2ccc(F)cc2C1 (centres unmarked) [Example 255, 1-[2-(7-fluoro-3,4-dihydroisoquinolin-2(1H)-yl)-2-oxoethyl]-3-(4-fluorophenyl)pyrrolidin-2-one]
22 | 8.99 | O=C1N(Cc2nc(-c3cnccn3)no2)CCC1(c1ccccc1)c1ccccc1 [Example 230, 3,3-diphenyl-1-[(3-pyrazin-2-yl-1,2,4-oxadiazol-5-yl)methyl]pyrrolidin-2-one]
23 | 0.67 | COc1cc(CN2CCN(CCCN3CCCC(c4cccc(OC)c4)(C(C)C)C3=O)CC2)cc(OC)c1 (centres unmarked) [Example 133, 1-{3-[4-(3,5-dimethoxybenzyl)piperazin-1-yl]propyl}-3-isopropyl-3-(3-methoxyphenyl)piperidin-2-one]
24 | 2.76 | C[C@@H]1CN(C(c2ccccc2)c2ccccc2)CCN1C(=O)CN1CCC(c2ccccc2)(c2ccccc2)C1=O [Example 49, 1-{2-[(2R)-4-benzhydryl-2-methylpiperazin-1-yl]-2-oxoethyl}-3,3-diphenylpyrrolidin-2-one]
25 | 7.51 | O=C(CN1CCC(c2ccc(F)cc2)C1=O)N1CCc2ccc(Cl)cc2C1 (centres unmarked) [Example 256, 1-[2-(7-chloro-3,4-dihydroisoquinolin-2(1H)-yl)-2-oxoethyl]-3-(4-fluorophenyl)pyrrolidin-2-one]
26 | 1.03 | O=C(CN1CCC(c2ccccc2)(c2ccccc2)C1=O)N1CCN(Cc2cccc(C(F)(F)F)c2)CC1 [Example 37, 1-(2-oxo-2-{4-[3-(trifluoromethyl)benzyl]piperazin-1-yl}ethyl)-3,3-diphenylpyrrolidin-2-one]
27 | 1.86 | O=C(CN1CCCC(c2ccccc2)(c2ccccc2)C1=O)N1CCC(Oc2cccc(C(F)(F)F)c2)CC1 [Example 162, 1-(2-oxo-2-{4-[3-(trifluoromethyl)phenoxy]piperidin-1-yl}ethyl)-3,3-diphenylpiperidin-2-one]
28 | 4.13 | O=C(CN1CCCC(c2ccccc2)(c2ccccc2)C1=O)N1CCC(O)(c2ccc(Cl)c(C(F)(F)F)c2)CC1 [Example 250, 1-(2-{4-[4-chloro-3-(trifluoromethyl)phenyl]-4-hydroxypiperidin-1-yl}-2-oxoethyl)-3,3-diphenylpiperidin-2-one]
29 | 0.96 | O=C(CN1CCC(c2ccccc2)(c2ccccc2)C1=O)N1CCC(C(O)(c2ccccc2)c2ccccc2)CC1 [Example 34, 1-(2-{4-[hydroxy(diphenyl)methyl]piperidin-1-yl}-2-oxoethyl)-3,3-diphenylpyrrolidin-2-one]
30 | 4.44 | O=C(CN1CCCC(c2ccccc2)(c2ccccc2)C1=O)N1CCc2ccc(C(F)(F)F)cc2C1 [Example 261, 1-{2-oxo-2-[7-(trifluoromethyl)-3,4-dihydroisoquinolin-2(1H)-yl]ethyl}-3,3-diphenylpiperidin-2-one]
31 | 7.22 | O=C(CN1CCCC(c2ccccc2)(c2ccccc2)C1=O)N1CCOC(c2ccccc2)C1 (centres unmarked) [Example 70, 1-[2-oxo-2-(2-phenylmorpholin-4-yl)ethyl]-3,3-diphenylpiperidin-2-one]
32 | 1.99 | O=C1N(Cc2nc(-c3cnccc3C(F)(F)F)no2)CCC1(c1ccccc1)c1ccccc1 [Example 220, 3,3-diphenyl-1-({3-[4-(trifluoromethyl)pyridin-3-yl]-1,2,4-oxadiazol-5-yl}methyl)pyrrolidin-2-one]
33 | 0.77 | CC(c1cccc(C(F)(F)F)c1)N1CCN(C(=O)CN2CCC(c3ccccc3)(c3ccccc3)C2=O)CC1 (centres unmarked) [Example 44, 1-[2-oxo-2-(4-{1-[3-(trifluoromethyl)phenyl]ethyl}piperazin-1-yl)ethyl]-3,3-diphenylpyrrolidin-2-one]
34 | 3.39 | O=C1N(Cc2nc(CCc3ccc(Cl)cc3)no2)CCC1(c1ccc(F)cc1)c1ccc(F)cc1 [Example 165, 1-({3-[2-(4-chlorophenyl)ethyl]-1,2,4-oxadiazol-5-yl}methyl)-3,3-bis(4-fluorophenyl)pyrrolidin-2-one]
35 | 7.07 | O=C1N(Cc2nc(-c3ccc(C(F)(F)F)cc3)no2)CCC1(c1ccc(F)cc1)c1ccc(F)cc1 [Example 190, 3,3-bis(4-fluorophenyl)-1-({3-[4-(trifluoromethyl)phenyl]-1,2,4-oxadiazol-5-yl}methyl)pyrrolidin-2-one]
